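Cells were grown in 96-well plates and exposed to each compound for 48 hours at five concentrations; endpoints were interpolated linearly between bracketing concentrations, or set to the highest concentration if not reached. TGI: total growth inhibition.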
What was measured:
Assay in all cases: NCI-60 cell line screen, 48 h
MALME-3M melanoma = test system: MALME-3M melanoma
HCT-15 colon = test system: HCT-15 colon
MDA-N = test system: MDA-N
HL-60(TB) leukemia = test system: HL-60(TB) leukemia
M14 melanoma = test system: M14 melanoma
ACHN renal = test system: ACHN renal
SK-MEL-2 melanoma = test system: SK-MEL-2 melanoma
PC-3 prostate = test system: PC-3 prostate
SF-539 CNS = test system: SF-539 CNS
SNB-19 CNS = test system: SNB-19 CNS
COLO 205 colon = test system: COLO 205 colon
UACC-62 melanoma = test system: UACC-62 melanoma
MDA-MB-435 = test system: MDA-MB-435
HT29 colon = test system: HT29 colon
KM12 colon = test system: KM12 colon
LOX IMVI melanoma = test system: LOX IMVI melanoma
CAKI-1 renal = test system: CAKI-1 renal

Structure (SMILES) | TGI (MALME-3M melanoma) | TGI (HCT-15 colon) | TGI (MDA-N) | TGI (HL-60(TB) leukemia) | TGI (M14 melanoma) | TGI (ACHN renal) | TGI (SK-MEL-2 melanoma) | TGI (PC-3 prostate) | TGI (SF-539 CNS) | TGI (SNB-19 CNS) | TGI (COLO 205 colon) | TGI (UACC-62 melanoma) | TGI (MDA-MB-435) | TGI (HT29 colon) | TGI (KM12 colon) | TGI (LOX IMVI melanoma) | TGI (CAKI-1 renal)
CCC(=O)N/S(=N/S(=O)(=O)c1ccccc1)C(Cl)(Cl)Cl (stereo unspecified) | > 100 µM | > 100 µM | > 100 µM | > 100 µM | > 100 µM | > 100 µM | > 100 µM | > 100 µM | > 100 µM | > 100 µM | > 100 µM | > 100 µM | > 100 µM | > 100 µM | > 100 µM | > 100 µM | –
COc1ccc2c(O)c(S(=O)(=O)c3ccc(C)cc3)c(=O)oc2c1OC | > 100 µM | > 100 µM | > 100 µM | > 100 µM | > 100 µM | > 100 µM | > 100 µM | > 100 µM | > 100 µM | > 100 µM | > 100 µM | > 100 µM | > 100 µM | > 100 µM | > 100 µM | – | > 100 µM
O=C(N=Nc1ccc(Cl)cc1Cl)NNc1ccc(Cl)cc1Cl | 36.6 µM | 46.8 µM | 35.1 µM | 49.8 µM | – | 42.5 µM | 27 µM | 34.8 µM | – | > 100 µM | – | 29 µM | 51.3 µM | 75.3 µM | – | 30.4 µM | 52.9 µM
CC1(C)OC(=S)N(c2ccccc2)C12C=Cc1cc3ccccc3nc1S2 (stereo unspecified) | > 100 µM | > 100 µM | – | > 100 µM | > 100 µM | > 100 µM | > 100 µM | – | > 100 µM | > 100 µM | > 100 µM | > 100 µM | – | > 100 µM | > 100 µM | > 100 µM | –
COC1(C2c3ccccc3CCN2C(=O)OC(C)(C)C)C(=O)C(c2ccccc2)=C1N(C)C (stereo unspecified) | 93.8 µM | > 100 µM | 64 µM | 79.8 µM | > 100 µM | > 100 µM | 66.5 µM | 82.4 µM | 47.6 µM | > 100 µM | 35.4 µM | > 100 µM | 61.6 µM | 43.9 µM | > 100 µM | – | > 100 µM
Cc1ccc(/C=C2\NC(=S)NC2=O)cc1 | > 100 µM | > 100 µM | > 100 µM | – | > 100 µM | – | > 100 µM | > 100 µM | > 100 µM | > 100 µM | > 100 µM | > 100 µM | > 100 µM | > 100 µM | > 100 µM | > 100 µM | > 100 µM
O=C(c1cccs1)c1nccc2c1cnc1ccccc12 | > 100 µM | > 100 µM | – | > 100 µM | > 100 µM | > 100 µM | > 100 µM | > 100 µM | > 100 µM | > 100 µM | > 100 µM | > 100 µM | > 100 µM | > 100 µM | > 100 µM | > 100 µM | > 100 µM
Nc1ccc(-c2nc3ccc(F)cc3s2)cc1Cl | > 100 µM | > 100 µM | > 100 µM | – | > 100 µM | > 100 µM | > 100 µM | > 100 µM | > 100 µM | > 100 µM | > 100 µM | > 100 µM | > 100 µM | > 100 µM | > 100 µM | > 100 µM | > 100 µM

Reference: PubChem BioAssay (NCI)
